Where two headings read alike, the source gives them in different places.
Key:
BMPR2(h) = BMPR2(h) (Homo sapiens (Human), UniProt Q13873); test: KinaseProfiler panel; type: biochemical; set-up: dose or concentration left out as unconfirmed; settings: activity remaining
LKB1(h) = LKB1(h) (Homo sapiens (Human), UniProt Q15831); test: KinaseProfiler panel; type: biochemical; set-up: dose or concentration left out as unconfirmed; settings: activity remaining
[1] = target: PI3 Kinase (p110b/p85a)(h) (Homo sapiens (Human), UniProt P42338); test: KinaseProfiler panel; type: biochemical; set-up: dose or concentration left out as unconfirmed; settings: activity remaining
Blk(h) = Blk(h) (Homo sapiens (Human), UniProt P51451); test: KinaseProfiler panel; type: biochemical; set-up: dose or concentration left out as unconfirmed; settings: activity remaining
Sequence of Blk(h) (P51451 whole entry): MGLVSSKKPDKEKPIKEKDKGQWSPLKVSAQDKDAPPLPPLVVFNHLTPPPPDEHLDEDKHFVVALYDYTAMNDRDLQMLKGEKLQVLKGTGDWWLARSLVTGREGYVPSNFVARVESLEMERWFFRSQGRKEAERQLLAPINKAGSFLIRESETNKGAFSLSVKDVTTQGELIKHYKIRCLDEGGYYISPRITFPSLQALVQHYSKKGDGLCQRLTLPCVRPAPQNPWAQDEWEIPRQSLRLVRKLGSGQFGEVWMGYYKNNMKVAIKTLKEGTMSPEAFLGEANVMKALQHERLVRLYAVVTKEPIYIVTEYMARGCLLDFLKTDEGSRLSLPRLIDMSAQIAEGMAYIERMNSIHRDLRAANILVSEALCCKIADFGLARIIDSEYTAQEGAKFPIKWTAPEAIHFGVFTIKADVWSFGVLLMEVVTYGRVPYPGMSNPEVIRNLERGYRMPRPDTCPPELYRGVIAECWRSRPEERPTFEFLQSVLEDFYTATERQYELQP

[2] = tested on: NCI-60 human tumor cell line panel; test: NCI-60 human tumor cell line screen (GI50); type: cell-based
SAPK2b(h) = SAPK2b(h) (Homo sapiens (Human), UniProt Q15759); test: KinaseProfiler panel; type: biochemical; set-up: dose or concentration left out as unconfirmed; settings: activity remaining
Sequence of SAPK2b(h) (Q15759 whole entry): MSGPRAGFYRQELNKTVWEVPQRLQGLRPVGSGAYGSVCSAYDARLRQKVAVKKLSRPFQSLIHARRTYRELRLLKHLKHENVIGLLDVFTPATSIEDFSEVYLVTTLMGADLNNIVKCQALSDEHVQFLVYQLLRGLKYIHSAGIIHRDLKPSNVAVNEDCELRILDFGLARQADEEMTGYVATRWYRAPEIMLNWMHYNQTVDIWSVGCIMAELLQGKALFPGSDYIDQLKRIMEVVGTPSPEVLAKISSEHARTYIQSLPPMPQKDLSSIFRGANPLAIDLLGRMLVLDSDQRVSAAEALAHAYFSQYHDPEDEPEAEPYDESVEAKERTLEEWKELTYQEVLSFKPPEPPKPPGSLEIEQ

NEK7(h) = NEK7(h) (Homo sapiens (Human), UniProt Q8TDX7); test: KinaseProfiler panel; type: biochemical; set-up: dose or concentration left out as unconfirmed; settings: activity remaining
Sequence of NEK7(h) (Q8TDX7 whole entry): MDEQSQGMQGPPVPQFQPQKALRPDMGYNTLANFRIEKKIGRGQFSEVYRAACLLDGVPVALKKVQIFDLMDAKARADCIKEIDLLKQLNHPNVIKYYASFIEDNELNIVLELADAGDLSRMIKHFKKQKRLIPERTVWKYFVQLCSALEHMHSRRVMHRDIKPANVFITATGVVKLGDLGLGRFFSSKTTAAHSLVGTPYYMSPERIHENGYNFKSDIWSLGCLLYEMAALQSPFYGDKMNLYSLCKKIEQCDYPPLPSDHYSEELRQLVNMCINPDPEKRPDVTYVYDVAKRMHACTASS

SAPK3(h) = SAPK3(h) (Homo sapiens (Human), UniProt P53778); test: KinaseProfiler panel; type: biochemical; set-up: dose or concentration left out as unconfirmed; settings: activity remaining
Sequence of SAPK3(h) (P53778 whole entry): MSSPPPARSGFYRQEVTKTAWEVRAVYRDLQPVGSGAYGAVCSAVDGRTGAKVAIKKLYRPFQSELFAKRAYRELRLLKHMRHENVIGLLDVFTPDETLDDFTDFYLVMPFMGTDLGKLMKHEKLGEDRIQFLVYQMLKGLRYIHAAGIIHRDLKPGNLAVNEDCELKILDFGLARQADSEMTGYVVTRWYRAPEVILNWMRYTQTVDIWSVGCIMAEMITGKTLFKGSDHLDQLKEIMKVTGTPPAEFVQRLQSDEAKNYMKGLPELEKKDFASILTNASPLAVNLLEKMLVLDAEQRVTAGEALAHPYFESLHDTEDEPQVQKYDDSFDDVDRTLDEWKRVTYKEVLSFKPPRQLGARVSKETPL

MEK1(h) = MEK1(h) (Homo sapiens (Human), UniProt Q02750); test: KinaseProfiler panel; type: biochemical; set-up: dose or concentration left out as unconfirmed; settings: activity remaining
Sequence of MEK1(h) (Q02750 whole entry): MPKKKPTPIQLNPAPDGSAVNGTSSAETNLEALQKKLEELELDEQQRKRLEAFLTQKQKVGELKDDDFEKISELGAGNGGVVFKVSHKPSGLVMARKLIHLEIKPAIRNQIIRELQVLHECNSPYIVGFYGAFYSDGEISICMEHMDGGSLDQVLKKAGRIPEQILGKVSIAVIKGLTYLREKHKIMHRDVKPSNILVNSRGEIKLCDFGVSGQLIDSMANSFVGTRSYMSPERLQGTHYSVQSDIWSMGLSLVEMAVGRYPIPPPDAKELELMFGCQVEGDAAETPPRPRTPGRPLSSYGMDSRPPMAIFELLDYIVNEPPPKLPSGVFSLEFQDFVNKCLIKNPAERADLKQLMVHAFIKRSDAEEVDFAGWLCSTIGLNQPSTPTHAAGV

SGK3(h) = SGK3(h) (Homo sapiens (Human), UniProt Q96BR1); test: KinaseProfiler panel; type: biochemical; set-up: dose or concentration left out as unconfirmed; settings: activity remaining
Sequence of SGK3(h) (Q96BR1 whole entry): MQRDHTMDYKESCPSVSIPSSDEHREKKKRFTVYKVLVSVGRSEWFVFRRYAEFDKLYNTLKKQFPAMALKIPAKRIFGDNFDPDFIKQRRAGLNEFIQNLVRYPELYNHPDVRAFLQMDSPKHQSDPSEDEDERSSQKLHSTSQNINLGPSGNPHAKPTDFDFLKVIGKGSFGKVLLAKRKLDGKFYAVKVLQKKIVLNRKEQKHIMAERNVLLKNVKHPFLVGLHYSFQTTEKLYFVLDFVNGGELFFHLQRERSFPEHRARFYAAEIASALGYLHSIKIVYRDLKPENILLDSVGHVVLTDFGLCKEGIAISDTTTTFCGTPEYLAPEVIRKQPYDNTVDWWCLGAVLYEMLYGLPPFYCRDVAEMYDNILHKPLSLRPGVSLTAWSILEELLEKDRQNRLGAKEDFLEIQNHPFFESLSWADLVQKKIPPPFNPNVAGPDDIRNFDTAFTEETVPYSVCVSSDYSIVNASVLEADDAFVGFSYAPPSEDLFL

Sequence of BMPR2(h) (Q13873 27-1038): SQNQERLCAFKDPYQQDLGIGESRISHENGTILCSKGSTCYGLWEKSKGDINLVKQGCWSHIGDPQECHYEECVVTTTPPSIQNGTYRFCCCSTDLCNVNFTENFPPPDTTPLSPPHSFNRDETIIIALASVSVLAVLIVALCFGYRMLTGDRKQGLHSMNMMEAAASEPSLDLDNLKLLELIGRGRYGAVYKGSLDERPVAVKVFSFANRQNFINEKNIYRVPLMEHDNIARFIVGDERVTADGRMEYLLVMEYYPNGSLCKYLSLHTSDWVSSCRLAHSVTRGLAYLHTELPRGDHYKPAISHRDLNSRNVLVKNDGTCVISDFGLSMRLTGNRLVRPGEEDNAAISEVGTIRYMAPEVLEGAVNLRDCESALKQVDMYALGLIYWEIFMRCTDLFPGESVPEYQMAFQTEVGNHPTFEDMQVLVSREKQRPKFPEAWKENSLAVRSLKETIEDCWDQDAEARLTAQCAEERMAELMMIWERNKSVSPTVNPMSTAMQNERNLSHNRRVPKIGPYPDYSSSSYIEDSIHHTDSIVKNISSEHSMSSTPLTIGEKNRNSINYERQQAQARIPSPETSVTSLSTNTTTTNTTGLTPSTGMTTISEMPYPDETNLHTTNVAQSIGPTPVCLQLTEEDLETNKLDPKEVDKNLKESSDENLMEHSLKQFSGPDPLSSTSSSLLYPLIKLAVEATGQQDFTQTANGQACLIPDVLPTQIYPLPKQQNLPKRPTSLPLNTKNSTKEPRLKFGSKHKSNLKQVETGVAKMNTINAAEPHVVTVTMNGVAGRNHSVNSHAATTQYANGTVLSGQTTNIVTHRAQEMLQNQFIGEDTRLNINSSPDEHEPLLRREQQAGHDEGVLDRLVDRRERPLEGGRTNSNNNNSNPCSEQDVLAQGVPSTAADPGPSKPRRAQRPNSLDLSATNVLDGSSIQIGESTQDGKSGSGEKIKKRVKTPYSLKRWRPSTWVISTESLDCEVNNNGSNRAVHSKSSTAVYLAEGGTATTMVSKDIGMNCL
Sequence of LKB1(h) (Q15831 whole entry): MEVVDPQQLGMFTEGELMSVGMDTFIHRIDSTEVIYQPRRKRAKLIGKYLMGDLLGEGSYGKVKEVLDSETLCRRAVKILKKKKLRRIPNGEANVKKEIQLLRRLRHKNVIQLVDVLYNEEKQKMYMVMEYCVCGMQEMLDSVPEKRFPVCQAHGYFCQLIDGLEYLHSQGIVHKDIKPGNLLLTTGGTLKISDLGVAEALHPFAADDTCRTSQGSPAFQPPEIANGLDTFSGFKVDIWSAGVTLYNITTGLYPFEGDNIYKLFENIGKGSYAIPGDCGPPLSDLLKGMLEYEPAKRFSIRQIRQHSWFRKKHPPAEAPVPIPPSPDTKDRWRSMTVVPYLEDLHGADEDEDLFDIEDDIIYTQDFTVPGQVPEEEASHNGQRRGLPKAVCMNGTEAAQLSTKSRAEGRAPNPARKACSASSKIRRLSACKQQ
Sequence of LKB1(h) (Q7RTN6 whole entry partner): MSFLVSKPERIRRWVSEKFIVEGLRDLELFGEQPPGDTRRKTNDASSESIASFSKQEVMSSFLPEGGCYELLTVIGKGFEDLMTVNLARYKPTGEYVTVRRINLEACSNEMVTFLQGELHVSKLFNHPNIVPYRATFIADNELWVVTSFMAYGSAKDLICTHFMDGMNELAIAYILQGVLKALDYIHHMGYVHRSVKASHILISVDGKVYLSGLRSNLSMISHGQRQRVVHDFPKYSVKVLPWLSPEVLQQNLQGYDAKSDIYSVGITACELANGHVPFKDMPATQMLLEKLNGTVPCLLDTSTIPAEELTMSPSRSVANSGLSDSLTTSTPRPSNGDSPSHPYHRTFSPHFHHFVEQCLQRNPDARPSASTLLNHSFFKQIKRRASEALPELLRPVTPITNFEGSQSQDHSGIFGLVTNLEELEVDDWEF
Sequence of LKB1(h) (Q9Y376 whole entry partner): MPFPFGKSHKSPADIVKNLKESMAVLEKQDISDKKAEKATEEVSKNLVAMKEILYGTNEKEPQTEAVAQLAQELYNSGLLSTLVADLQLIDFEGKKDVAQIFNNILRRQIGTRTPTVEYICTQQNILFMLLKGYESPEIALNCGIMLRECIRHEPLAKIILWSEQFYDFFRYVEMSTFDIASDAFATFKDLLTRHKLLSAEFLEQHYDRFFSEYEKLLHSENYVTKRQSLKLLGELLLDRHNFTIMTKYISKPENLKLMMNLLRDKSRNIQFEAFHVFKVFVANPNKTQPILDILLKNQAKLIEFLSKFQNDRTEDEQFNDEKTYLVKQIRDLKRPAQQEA

Cc1cc2c(-c3ccc(NC(=O)[C@H](N)CC(C)(C)C)cc3C)ccnc2[nH]1 [Compound F-90, (2R)-2-Amino-4,4-dimethyl-N-[3-methyl-4-(2-methyl-1H-pyrrolo[2,3-b]pyridin-4-yl)phenyl]pentanamide]
% Activity (BMPR2(h)): 85%
% Activity (LKB1(h)): 99%
% Activity [1]: 102%
% Activity (Blk(h)): 88%
GI50 ([2]; 786-0, Renal Cancer): −5.744 Log(M)
GI50 ([2]; A498, Renal Cancer): −5.657 Log(M)
GI50 ([2]; A549/ATCC, Non-Small Cell Lung Cancer): −4.985 Log(M)
GI50 ([2]; ACHN, Renal Cancer): −4.978 Log(M)
GI50 ([2]; BT-549, Breast Cancer): −5.200 Log(M)
GI50 ([2]; CAKI-1, Renal Cancer): −5.347 Log(M)
GI50 ([2]; CCRF-CEM, Leukemia): −5.267 Log(M)
GI50 ([2]; COLO 205, Colon Cancer): −5.741 Log(M)
GI50 ([2]; DU-145, Prostate Cancer): −4.905 Log(M)
GI50 ([2]; EKVX, Non-Small Cell Lung Cancer): −4.950 Log(M)
GI50 ([2]; HCC-2998, Colon Cancer): −5.236 Log(M)
GI50 ([2]; HCT-15, Colon Cancer): −5.345 Log(M)
GI50 ([2]; HCT-116, Colon Cancer): −5.314 Log(M)
GI50 ([2]; HL-60(TB), Leukemia): −5.539 Log(M)
GI50 ([2]; HOP-62, Non-Small Cell Lung Cancer): −4.941 Log(M)
GI50 ([2]; HOP-92, Non-Small Cell Lung Cancer): −5.574 Log(M)
GI50 ([2]; HS 578T, Breast Cancer): −5.849 Log(M)
GI50 ([2]; HT29, Colon Cancer): −5.565 Log(M)
GI50 ([2]; Homo sapiens, 786-0, 786-0, Renal Cancer, read-out: GI50): 1.8 µM
GI50 ([2]; Homo sapiens, A498, A498, Renal Cancer, read-out: GI50): 2.2 µM
GI50 ([2]; Homo sapiens, A549, A549/ATCC, Non-Small Cell Lung Cancer, read-out: GI50): 10.3 µM
GI50 ([2]; Homo sapiens, ACHN, Renal Cancer, read-out: GI50): 10.5 µM
GI50 ([2]; Homo sapiens, BT-549, BT-549, Breast Cancer, read-out: GI50): 6.3 µM
GI50 ([2]; Homo sapiens, CAKI-1, CAKI-1, Renal Cancer, read-out: GI50): 4.5 µM
GI50 ([2]; Homo sapiens, CCRF-CEM, Leukemia, read-out: GI50): 5.4 µM
GI50 ([2]; Homo sapiens, COLO 205, COLO 205, Colon Cancer, read-out: GI50): 1.8 µM
GI50 ([2]; Homo sapiens, DU-145, DU-145, Prostate Cancer, read-out: GI50): 12.4 µM
GI50 ([2]; Homo sapiens, EKVX, Non-Small Cell Lung Cancer, read-out: GI50): 11.2 µM
GI50 ([2]; Homo sapiens, HCC 2998, HCC-2998, Colon Cancer, read-out: GI50): 5.8 µM
GI50 ([2]; Homo sapiens, HCT-15, HCT-15, Colon Cancer, read-out: GI50): 4.5 µM
GI50 ([2]; Homo sapiens, HCT-116, HCT-116, Colon Cancer, read-out: GI50): 4.9 µM
GI50 ([2]; Homo sapiens, HL-60, HL-60(TB), Leukemia, read-out: GI50): 2.9 µM
GI50 ([2]; Homo sapiens, HOP-62, HOP-62, Non-Small Cell Lung Cancer, read-out: GI50): 11.4 µM
GI50 ([2]; Homo sapiens, HOP-92, HOP-92, Non-Small Cell Lung Cancer, read-out: GI50): 2.7 µM
GI50 ([2]; Homo sapiens, HT-29, HT29, Colon Cancer, read-out: GI50): 2.7 µM
GI50 ([2]; Homo sapiens, Hs-578T, HS 578T, Breast Cancer, read-out: GI50): 1.4 µM
GI50 ([2]; Homo sapiens, IGROV-1, IGROV1, Ovarian Cancer, read-out: GI50): 12.2 µM
GI50 ([2]; Homo sapiens, K562, K-562, Leukemia, read-out: GI50): 2.8 µM
GI50 ([2]; Homo sapiens, KM12, KM12, Colon Cancer, read-out: GI50): 6.1 µM
GI50 ([2]; Homo sapiens, LOX IMVI, Melanoma, read-out: GI50): 6.2 µM
GI50 ([2]; Homo sapiens, M14, M14, Melanoma, read-out: GI50): 11 µM
GI50 ([2]; Homo sapiens, MCF7, MCF7, Breast Cancer, read-out: GI50): 5.5 µM
GI50 ([2]; Homo sapiens, MDA-MB-231, MDA-MB-231/ATCC, Breast Cancer, read-out: GI50): 7.4 µM
GI50 ([2]; Homo sapiens, MDA-MB-435, MDA-MB-435, Breast Cancer, read-out: GI50): 7 µM
GI50 ([2]; Homo sapiens, MDA-MB-468, MDA-MB-468, Breast Cancer, read-out: GI50): 2.7 µM
GI50 ([2]; Homo sapiens, MOLT-4, MOLT-4, Leukemia, read-out: GI50): 4.7 µM
GI50 ([2]; Homo sapiens, Malme-3M, Melanoma, read-out: GI50): 10.2 µM
GI50 ([2]; Homo sapiens, NCI-H23, NCI-H23, Non-Small Cell Lung Cancer, read-out: GI50): 12.2 µM
GI50 ([2]; Homo sapiens, NCI-H226, NCI-H226, Non-Small Cell Lung Cancer, read-out: GI50): 10.7 µM
GI50 ([2]; Homo sapiens, NCI-H322M, Non-Small Cell Lung Cancer, read-out: GI50): 14.3 µM
GI50 ([2]; Homo sapiens, NCI-H460, NCI-H460, Non-Small Cell Lung Cancer, read-out: GI50): 5.7 µM
GI50 ([2]; Homo sapiens, NCI-H522, NCI-H522, Non-Small Cell Lung Cancer, read-out: GI50): 13 µM
GI50 ([2]; Homo sapiens, NCI/ADR-RES, Breast Cancer, read-out: GI50): 13.4 µM
GI50 ([2]; Homo sapiens, OVCAR-3, OVCAR-3, Ovarian Cancer, read-out: GI50): 11.6 µM
GI50 ([2]; Homo sapiens, OVCAR-4, OVCAR-4, Ovarian Cancer, read-out: GI50): 7 µM
GI50 ([2]; Homo sapiens, OVCAR-5, OVCAR-5, Ovarian Cancer, read-out: GI50): 10.4 µM
GI50 ([2]; Homo sapiens, OVCAR-8, OVCAR-8, Ovarian Cancer, read-out: GI50): 13.6 µM
GI50 ([2]; Homo sapiens, PC-3, Prostate Cancer, read-out: GI50): 7.9 µM
GI50 ([2]; Homo sapiens, RPMI-8226, RPMI-8226, Leukemia, read-out: GI50): 2.8 µM
GI50 ([2]; Homo sapiens, RXF 393, RXF 393, Renal Cancer, read-out: GI50): 3.7 µM
GI50 ([2]; Homo sapiens, SF-268, SF-268, CNS Cancer, read-out: GI50): 11.1 µM
GI50 ([2]; Homo sapiens, SF-295, SF-295, CNS Cancer, read-out: GI50): 8.3 µM
GI50 ([2]; Homo sapiens, SF-539, SF-539, CNS Cancer, read-out: GI50): 8 µM
GI50 ([2]; Homo sapiens, SK-MEL-2, SK-MEL-2, Melanoma, read-out: GI50): 14 µM
GI50 ([2]; Homo sapiens, SK-MEL-5, SK-MEL-5, Melanoma, read-out: GI50): 2.5 µM
GI50 ([2]; Homo sapiens, SK-MEL-28, SK-MEL-28, Melanoma, read-out: GI50): 8.5 µM
GI50 ([2]; Homo sapiens, SK-OV-3, SK-OV-3, Ovarian Cancer, read-out: GI50): 12.4 µM
GI50 ([2]; Homo sapiens, SN12C, Renal Cancer, read-out: GI50): 11.1 µM
GI50 ([2]; Homo sapiens, SNB-19, SNB-19, CNS Cancer, read-out: GI50): 11.3 µM
GI50 ([2]; Homo sapiens, SNB-75, SNB-75, CNS Cancer, read-out: GI50): 4.7 µM
GI50 ([2]; Homo sapiens, SR, Leukemia, read-out: GI50): 2.1 µM
GI50 ([2]; Homo sapiens, SW-620, SW-620, Colon Cancer, read-out: GI50): 5.6 µM
GI50 ([2]; Homo sapiens, T47D, T-47D, Breast Cancer, read-out: GI50): 6.7 µM
GI50 ([2]; Homo sapiens, TK-10, TK-10, Renal Cancer, read-out: GI50): 12.6 µM
GI50 ([2]; Homo sapiens, U-251, U251, CNS Cancer, read-out: GI50): 6 µM
GI50 ([2]; Homo sapiens, UACC-62, UACC-62, Melanoma, read-out: GI50): 8.6 µM
GI50 ([2]; Homo sapiens, UACC-257, UACC-257, Melanoma, read-out: GI50): 10.5 µM
GI50 ([2]; Homo sapiens, UO-31, UO-31, Renal Cancer, read-out: GI50): 4.6 µM
GI50 ([2]; IGROV1, Ovarian Cancer): −4.915 Log(M)
GI50 ([2]; K-562, Leukemia): −5.551 Log(M)
GI50 ([2]; KM12, Colon Cancer): −5.215 Log(M)
GI50 ([2]; LOX IMVI, Melanoma): −5.211 Log(M)
GI50 ([2]; M14, Melanoma): −4.959 Log(M)
GI50 ([2]; MALME-3M, Melanoma): −4.992 Log(M)
GI50 ([2]; MCF7, Breast Cancer): −5.256 Log(M)
GI50 ([2]; MDA-MB-231/ATCC, Breast Cancer): −5.129 Log(M)
GI50 ([2]; MDA-MB-435, Breast Cancer): −5.155 Log(M)
GI50 ([2]; MDA-MB-468, Breast Cancer): −5.564 Log(M)
GI50 ([2]; MOLT-4, Leukemia): −5.329 Log(M)
GI50 ([2]; NCI-H23, Non-Small Cell Lung Cancer): −4.915 Log(M)
GI50 ([2]; NCI-H226, Non-Small Cell Lung Cancer): −4.971 Log(M)
GI50 ([2]; NCI-H322M, Non-Small Cell Lung Cancer): −4.845 Log(M)
GI50 ([2]; NCI-H460, Non-Small Cell Lung Cancer): −5.245 Log(M)
GI50 ([2]; NCI-H522, Non-Small Cell Lung Cancer): −4.887 Log(M)
GI50 ([2]; NCI/ADR-RES, Breast Cancer): −4.873 Log(M)
GI50 ([2]; OVCAR-3, Ovarian Cancer): −4.937 Log(M)
GI50 ([2]; OVCAR-4, Ovarian Cancer): −5.158 Log(M)
GI50 ([2]; OVCAR-5, Ovarian Cancer): −4.982 Log(M)
GI50 ([2]; OVCAR-8, Ovarian Cancer): −4.867 Log(M)
GI50 ([2]; PC-3, Prostate Cancer): −5.102 Log(M)
GI50 ([2]; RPMI-8226, Leukemia): −5.557 Log(M)
GI50 ([2]; RXF 393, Renal Cancer): −5.434 Log(M)
GI50 ([2]; SF-268, CNS Cancer): −4.953 Log(M)
GI50 ([2]; SF-295, CNS Cancer): −5.079 Log(M)
GI50 ([2]; SF-539, CNS Cancer): −5.098 Log(M)
GI50 ([2]; SK-MEL-2, Melanoma): −4.853 Log(M)
GI50 ([2]; SK-MEL-5, Melanoma): −5.609 Log(M)
GI50 ([2]; SK-MEL-28, Melanoma): −5.072 Log(M)
GI50 ([2]; SK-OV-3, Ovarian Cancer): −4.905 Log(M)
GI50 ([2]; SN12C, Renal Cancer): −4.953 Log(M)
GI50 ([2]; SNB-19, CNS Cancer): −4.945 Log(M)
GI50 ([2]; SNB-75, CNS Cancer): −5.326 Log(M)
GI50 ([2]; SR, Leukemia): −5.682 Log(M)
GI50 ([2]; SW-620, Colon Cancer): −5.250 Log(M)
GI50 ([2]; T-47D, Breast Cancer): −5.174 Log(M)
GI50 ([2]; TK-10, Renal Cancer): −4.901 Log(M)
GI50 ([2]; U251, CNS Cancer): −5.222 Log(M)
GI50 ([2]; UACC-62, Melanoma): −5.066 Log(M)
GI50 ([2]; UACC-257, Melanoma): −4.977 Log(M)
GI50 ([2]; UO-31, Renal Cancer): −5.335 Log(M)
% Activity (SAPK2b(h)): 90%
% Activity (NEK7(h)): 88%
% Activity (SAPK3(h)): 113%
% Activity (MEK1(h)): 101%
% Activity (SGK3(h)): 102%

Source: patent US20250243196A1, “CITRON KINASE INHIBITORS” (The Cleveland Clinic Foundation, priority 2021, published 2025)
